Measured values: US20190216886A1, “Topical Compositions And Methods For Treating Wounds” (priority 2014, published 2019)

Experiments:
S. pyogenes = assay: in vitro zone inhibition (disk diffusion) study; format: cell-based, Streptococcus pyogenes; details: for Mean inhibition diameter: S. pyogenes (n = 6), 6 mm paper disks on Mueller Hinton Agar; for antimicrobial activity, in words: S. pyogenes, zone inhibition
Protocol: (§1) In vitro culture and sensitivity studies were performed on common microbes seen in acute and stubborn chronic wound cases. The particular microbes tested included streptococcus pyogenes, staphylococcus aureus, methicillin resistant staphylococcus aureus (MRSA) and, a fungus, candida albicans. Ten different strains of MRSA bacteria obtained from infected hospital patients were tested.
(§2) The different microbes were inoculated on Mueller Hinton Agar media in culture plates. […] However, genetically mutated resistant strains of staphylococcus have evolved and are now the cause of numerous infections because of their resistant nature to most antibiotics.

C. albicans = assay: in vitro zone inhibition (disk diffusion) study; format: cell-based, Candida albicans; details: for Mean inhibition diameter: C. albicans (n = 6), 6 mm paper disks on Mueller Hinton Agar; for antimicrobial activity, in words: C. albicans (fungi), zone inhibition
Protocol: as §1, §2

S. aureus = assay: in vitro zone inhibition (disk diffusion) study; format: cell-based, Staphylococcus aureus; details: for Mean inhibition diameter: S. aureus (n = 6), 6 mm paper disks on Mueller Hinton Agar; for antimicrobial activity, in words: non-resistant S. aureus, zone inhibition
Protocol: as §1, §2

MRSA = assay: in vitro zone inhibition (disk diffusion) study; format: cell-based, methicillin resistant staphylococcus aureus; details: for Mean inhibition diameter: MRSA (10 strains, n = 30), 6 mm paper disks on Mueller Hinton Agar; for zone of inhibition, visual result: MRSA strain number 11, FIG. 7; for antimicrobial activity, in words: MRSA, zone inhibition
Protocol: as §1, §2

tinea pedis infection = assay: treatment of a patient with chronic tinea pedis; format: in vivo, human; details: person, oral, after a month's treatment
Protocol: Twenty patients with a variety of chronic wound conditions that included diabetic foot ulcers, decubitus pressure ulcers, surgical wounds, toe fungus were treated for eight weeks by wound care physicians with a compounded topical pharmaceutical composition made from compendial ingredients.
Specifically, the test pharmaceutical composition for these studies was prepared by compounding: 25 parts 1% silver sulfadiazine cream: 25 parts 20% zinc oxide ointment; 15 parts triple antibiotic ointment; 25 parts 2% lidocaine viscous; 5 parts Vitamin E Oil (as 200 IU/gm final); and 5 parts Coenzyme Q10 (as 15 mg/gm final).
A case of tinea pedis was also reported in one of the patients. A person who had been suffering from chronic tinea pedis infection (athlete's foot) for over 10 months had tried numerous over-the-counter remedies with no success. They were prescribed the oral antibiotic terbinafine. […] The terbinafine was discontinued and the patient was placed on the test pharmaceutical formulation of the invention on Apr. 14, 2014. They returned for a follow-up with their physician about one week later on Apr. 22, 2014. […] The patient returned for a second follow up on Apr. 29, 2014 (FIG. 5B). The physician's report about 2 weeks after beginning treatment states: “Patient reports foot no longer itchy. Skin healing. […] Foot dry, healthy new tissue visualized”. […]

| SMILES | Mean inhibition diameter (S. pyogenes) | antimicrobial activity, in words (S. pyogenes) | Mean inhibition diameter (C. albicans) | Mean inhibition diameter (S. aureus) | antimicrobial activity, in words (S. aureus) | Mean inhibition diameter (MRSA) | zone of inhibition, visual result (MRSA) | antimicrobial activity, in words (C. albicans) | antimicrobial activity, in words (MRSA) | tinea pedis infection outcome (tinea pedis infection) |
| --- | --- | --- | --- | --- | --- | --- | --- | --- | --- | --- |
| Cc1onc(-c2ccccc2)c1C(=O)N[C@@H]1C(=O)N2[C@@H]1SC(C)(C)[C@@H]2C(=O)O [Oxacillin, oxacillin] | 30.2 mm | showed antimicrobial activity | 0.0 mm | 20.3 mm | showed antimicrobial activity | 0.0 mm | lack of any zone inhibition |  |  |  |
| CN[C@H](CC(C)C)C(=O)N[C@H]1C(=O)N[C@@H](CC(N)=O)C(=O)N[C@H]2C(=O)N[C@H]3C(=O)N[C@H](C(=O)N[C@H](C(=O)O)c4cc(O)cc(O)c4-c4cc3ccc4O)[C@H](O)c3ccc(c(Cl)c3)Oc3cc2cc(c3O[C@@H]2O[C@H](CO)[C@@H](O)[C@H](O)[C@H]2O[C@H]2C[C@](C)(N)[C@H](O)[C@H](C)O2)Oc2ccc(cc2Cl)[C@H]1O [Vancomycin, vancomycin] | 22.2 mm | potent activity | 0.0 mm | 17.3 mm | potent activity | 18.9 mm | clear circular area of inhibition zone | not effective | potent activity |  |
| COc1cccc(OC)c1C(=O)N[C@@H]1C(=O)N2[C@@H]1SC(C)(C)[C@@H]2C(=O)O [methicillin] |  |  |  |  |  |  |  | no activity | no activity |  |
| CN(C/C=C/C#CC(C)(C)C)Cc1cccc2ccccc12 [terbinafine] |  |  |  |  |  |  |  |  |  | no sign of reduction in the infection |
